Test [1] deals with bleomycin-induced lung fibrosis in C57Bl/6 male mice. Kind of test: Mouse oropharyngeal bleomycin model of lung fibrosis. It counts as in vivo. The procedure: Example B-3: Mouse Oropharyngeal Bleomycin Model of Lung Fibrosis
Lung fibrosis is induced in C57Bl/6 male mice by administering bleomycin (0.1-4 U/kg) via oropharyngeal instillation. Mice are either pretreated with vehicle or test compound (1 day to 1 hour) orally, intraperitoneally, intravenously or subcutaneously before bleomycin installation (prophylactic dosing) or 7-14 days post bleomycin instillation (therapeutic dosing). The route and frequency of dosing are based on previously determined pharmacokinetic properties for the LOXL2 inhibitor in mouse. After bleomycin instillation animals are monitored daily for weight loss and clinical signs for 14-28 days prior to sacrifice. Animals are euthanized at study termination and weighed and blood (for isolation of plasma) and bronchoalveolar lavage are collected and frozen for subsequent analyses. Lungs are removed, weighed, then either inflated and fixed by instillation of 10% formalin and prepared for histological examination or homogenized in 1 ml PBS for collagen determination using a hydroxyproline assay. For histological examination, lung slices are stained with Masson's trichrome or Picro-Sirius red to measure cross-linked collagen as an indicator of fibrosis and an Ashcroft score of lung fibrotic and inflammatory damage determined. In addition, immunohistochemistry of fibrotic proteins such as a-smooth muscle actin can be recorded. For lung hydroxyproline content, 0.5 ml of the lung homogenate is removed and added to 0.5 ml 12 N HCl and the samples heated at 120° C. overnight. After the acid hydrolysis, 25-100 μl of the supernatant is dried down, resuspended in 25 μl water and the hydroxyproline content determined by the addition of 0.5 ml Chloramine T solution (140 mg Chloramine T in 6.5 ml ddH2O+1 ml n-propanol+2.5 ml 1M sodium acetate) and incubation at room temperature for 20 min. After the incubation, 0.5 ml Erlich's solution (1.48 g of 4-(dimethylamino(benzaldehyde) in 7 ml n-propanol+2.88 ml 60% perchloric acid and 0.12 ml ddH2O) is added and incubated at 65° C. for 15 min before reading the absorbance at 550 nm. The concentration of hydroxyproline in each […] is determined from a hydroxyproline (purchased from Sigma) standard curve.

Test [2] addresses human LOXL2 (Homo sapiens (Human), UniProt Q9Y4K0). Kind of test: Human LOXL2 amine oxidase activity assay (Amplex Red). It counts as biochemical. The settings on record: concentrated conditioned media from CHO cells stably expressing human LOXL2; 2 h at 37° C. with compound; DAP substrate. The method in brief:
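Concentrated conditioned medium from CHO cells stably expressing human LOXL2 was preincubated with compound for 2 h at 37 °C in 50 mM borate, pH 8. 1,5-diaminopentane substrate and Amplex Red/HRP were then added. Fluorescence (544/590) was read kinetically every 2 min for 1 h, with activity taken from the linear slope.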

The test system of test [3] is kidney fibrosis in Col4A3 deficient mice. Kind of test: Mouse Alport model of kidney fibrosis. It is filed as in vivo. The settings on record: dosed prophylactically at 30 mg/kg p.o. As for the experimental part: Example B-7: Mouse Alport Model of Kidney Fibrosis
Mice with mutations in one of the genes of glomerular basement membrane collagen, Collagen IV-a3/a4/a5, have defects in glomerular function with development of kidney fibrosis These mice develop renal dysfunction and die prematurely of renal failure with specific timing dependent on the strain background upon which the mutation is present. LOXL2 inhibitors are administered orally to Col4A3 deficient mice on a SV129 background either prophylactically (ca. weeks 2-3 of age) or therapeutically (ca. weeks 4-6 wks of age). Mice are either sacrificed at a predefined time (7-9 wks of age) or continually dosed until they lose >15% of their body weight which preceeds death by 1-3 days. If specifically terminated, mice are perfused transcardially with PBS, and one kidney clamped at the renal artery and the other perfused with Dynabeads for magnetic isolation of glomeruli. […] RNA from glomeruli and renal cortex is analyzed by real time RT-PCR for genes of interest including MMP-10, MMP-12, IL6, MCP-1, TGF-b1, CTGF, MMP-2, and MMP-9. […] Collagen 1 staining is blindly analyzed for fibrosis scoring, and fibronectin staining is blindly analyzed for glomerulosclerosis scoring. For all studies albuminuria is assessed weekly and BUN at the time of tissue harvest.

What is called IC50 is the point on the concentration scale where inhibition reaches its midpoint.

Where only a bound is given, the exact number is not on record here.

Sequence of human LOXL2 (Q9Y4K0 26-774): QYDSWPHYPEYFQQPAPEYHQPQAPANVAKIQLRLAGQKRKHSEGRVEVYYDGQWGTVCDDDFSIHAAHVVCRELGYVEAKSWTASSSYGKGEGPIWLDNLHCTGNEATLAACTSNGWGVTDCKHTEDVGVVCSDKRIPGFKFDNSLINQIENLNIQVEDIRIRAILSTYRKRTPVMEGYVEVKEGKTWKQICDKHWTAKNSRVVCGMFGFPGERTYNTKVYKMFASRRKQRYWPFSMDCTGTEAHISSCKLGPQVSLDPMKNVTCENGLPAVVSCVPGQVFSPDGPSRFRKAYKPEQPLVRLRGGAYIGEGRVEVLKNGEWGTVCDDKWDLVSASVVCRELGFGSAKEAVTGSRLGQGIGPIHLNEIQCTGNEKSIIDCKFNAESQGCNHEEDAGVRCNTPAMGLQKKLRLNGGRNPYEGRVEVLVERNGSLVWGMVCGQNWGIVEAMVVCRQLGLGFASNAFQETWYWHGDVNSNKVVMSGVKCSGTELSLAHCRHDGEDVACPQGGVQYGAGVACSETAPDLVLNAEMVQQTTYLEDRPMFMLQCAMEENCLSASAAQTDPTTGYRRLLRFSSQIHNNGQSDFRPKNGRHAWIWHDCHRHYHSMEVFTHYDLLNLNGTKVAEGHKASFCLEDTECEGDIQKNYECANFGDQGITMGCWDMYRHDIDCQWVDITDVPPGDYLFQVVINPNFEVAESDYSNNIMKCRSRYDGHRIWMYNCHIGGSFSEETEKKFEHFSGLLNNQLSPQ

As for `Cl.NCc1cc(Oc2cccc(C(=O)N3C[C@@H](O)[C@H](F)C3)c2)nc(C(F)(F)F)c1` (stereo in doubt) [Compound 1-21, (R,R)-trans-(3-((4-(Aminomethyl)-6-(trifluoromethyl)pyridin-2-yl)oxy)phenyl)(3-fluoro-4-hydroxypyrrolidin-1-yl)methanone hydrochloride], the “efficacy in bleomycin lung fibrosis model, prophylactic dosing” value in test [1] (dosed prophylactically at 60 mg/kg p.o.) is reported as “efficacious”. For the same compound, the “efficacy in bleomycin lung fibrosis model, therapeutic dosing” value in test [1] (dosed therapeutically at 60 mg/kg p.o.) is “efficacious”. Besides, in test [2], the IC50 was less than 0.3 µM. Further, the “efficacy in Alport kidney fibrosis model, prophylactic dosing” value in test [3] is “efficacious”.

Source of the values: patent US11072585B2 (PharmAkea, Inc., priority 2015, dated 2021).
